From patent US7531554B2, “4-oxoquinoline compound and use thereof as HIV integrase inhibitor” (Japan Tobacco Inc., priority 2004, dated 2009)
pIC50: −log10 of the molar value. Structures can show the parent of a compound that is named as a salt.

These compounds were tested against T1, HIV integrase (Human immunodeficiency virus type 1 group M subtype B, UniProt P12497, F1332H) (assay: Determination of enzyme (HIV integrase) inhibitory activity). Settings: recombinant integrase protein (F185H), donor DNA/target DNA, absorbance at 450 nm.
T1 construct: HIV integrase full length gene (J. Virol., 67, 425-437 (1993)) in which phenylalanine at codon 185 was substituted by histidine; made in house; host or cells: Escherichia coli BL21(DE3)
Assay type: biochemical
Description: HIV integrase full length gene (J. Virol., 67, 425-437 (1993)) in which phenylalanine at codon 185 was substituted by histidine, was inserted between the restriction enzyme NdeI and XhoI sites of plasmid pET21a(+) (Novagen), whereby an integrase expression vector pET21a-IN-F185H was constructed.
Escherichia coli recombinant BL21(DE3) transformed with plasmid pET21a-IN-F185H obtained in (i) was shake cultured at 30° C. in a liquid medium containing ampicillin. When the culture reached the logarithmic growth phase, isopropyl-β-D-thiogalactopyranoside was added to promote expression of integrase gene. The culture was continued for 3 hr to promote accumulation of the integrase protein. The recombinant E. coli was collected in pellets by centrifugal separation and preserved at −80° C.
The E. coli was suspended in Lysis buffer (20 mM HEPES (pH 7.5), 5 mM DTT, 10 mM CHAPS, 10% glycerol) containing 1M sodium chloride and subjected to repeat pressurization and depressurization for rupture, and centrifugal separation at 4° C., 40,000×g, 60 min to recover a water-soluble fraction (supernatant). This was diluted 10-fold with Lysis buffer free of sodium chloride, mixed with SP-Sepharose (Pharmacia Corporation) and stirred at 4° C. for 60 min to allow adsorption of integrase protein to the resin. The resin was washed with Lysis buffer containing 100 mM sodium chloride and the integrase protein was eluted with Lysis buffer containing 1M sodium chloride.
The eluted integrase protein solution was subjected to a Superdex 75 (Pharmacia Corporation) column for gel filtration. The protein was eluted with Lysis buffer containing 1M sodium chloride.
The obtained fractions of the integrase protein were collected and preserved at −80° C.
The following DNA synthesized by Greiner was dissolved in TE buffer (10 mM Tris-hydrochloric acid (pH 8.0), 1 mM EDTA) and mixed with donor DNA, target DNA, and each complementary strand (+ and − strands) to 1 μM. The mixture was heated at 95° C. for 5 min, 80° C. for 10 min, 70° C. for 10 min, 60° C. for 10 min, 50° C. for 10 min and 40° C. for 10 min and kept at 25° C. to give a double stranded DNA, which was used for the test. Donor DNA ([…] attached to the 5′ terminal) Donor + strand: 5′-Biotin-ACCCTTTTAGTCAGTGTGGAAAATCTCTAGCA-3′ (SEQ ID NO:1) Donor − strand: 5′-ACTGCTAGAGATTTTCCACACTGACTAAAAG-3′ (SEQ ID NO:2) Target DNA (+, − strands both having digoxigenin added at 3′ terminal) Target + strand: 5′-TGACCAAGGGCTAATTCACT-Dig-3′ (SEQ ID NO:3) Target − strand: 5′-AGTGAATTAGCCCTTGGTCA-Dig-3′ (SEQ ID NO:4)
The donor DNA was diluted with TE buffer to 10 nM, of which 50 μl was added to each well of streptavidin-coated microtiter plate (Roche) and allowed to adsorb at 37° C. for 60 min. The plate was washed with phosphate buffer (Dulbecco's PBS, Sanko Junyaku Co., Ltd.) containing 0.1% Tween 20 and phosphate buffer. Then, an enzyme reaction mixture (70 μl), a test substance (10 μl) diluted with the reaction mixture and 100 μg/ml integrase protein (10 μl) were added to each well and reacted at 37° C. for 60 min.
Then, 50 nM target DNA (10 μl) was added, reacted at 37° C. for 10 min and washed with phosphate buffer containing 0.1% Tween 20 to stop the reaction.
Then, 100 mU/ml peroxidase labeled anti-digoxigenin antibody solution (Roche, 100 μl) was added, and the mixture was reacted at 37° C. for 60 min, followed by washing with phosphate buffer containing 0.1% Tween 20.
A peroxidase color solution (Bio Rad, 100 μl) was added and allowed to react at room temperature for 4 min. The color reaction was stopped by adding 1N sulfuric acid (100 μl). The absorbance at 450 nm was measured.
The HIV integrase inhibitory activity (IC50) of the compound of the present invention was calculated from the inhibition rate according to the following formula. […]

Row | SMILES | pIC50
1 | CC(C)[C@H]1COc2cc(Cc3cccc(Cl)c3F)cc3c(=O)c(C(=O)O)cn1c23 [Example 5-1, (3S)-8-(3-chloro-2-fluorobenzyl)-3-isopropyl-6-oxo-2,3-dihydro-6H-1-oxa-3a-aza-phenalene-5-carboxylic acid] | 6.80
2 | CC(C)[C@@H](CO)n1cc(C(=O)O)c(=O)c2cc(Cc3cccc(Cl)c3F)c(OCC(=O)N(C)C)cc21 [Example 4-53, 6-(3-chloro-2-fluorobenzyl)-7-((dimethylaminocarbonyl)methoxy)-1-((1S)-1-(hydroxymethyl)-2-methylpropyl)-4-oxo-1,4-dihydroquinoline-3-carboxylic acid] | 8.30
3 | CC(C)[C@@H](CO)n1cc(C(=O)O)c(=O)c2cc(Cc3cccc(Cl)c3F)cc(OCCO)c21 [Example 3-1, 6-(3-chloro-2-fluorobenzyl)-8-(2-hydroxyethoxy)-1-((1S)-1-(hydroxymethyl)-2-methylpropyl)-4-oxo-1,4-dihydroquinoline-3-carboxylic acid] | 8.29
4 | COc1cc2c(cc1Cc1cccc(Cl)c1F)c(=O)c(C(=O)O)cn2[C@H](CO)C1CCOCC1 [Example 2-1, 6-(3-chloro-2-fluorobenzyl)-1-((1S)-2-hydroxy-1-(tetrahydropyran-4-yl)ethyl)-7-methoxy-4-oxo-1,4-dihydroquinoline-3-carboxylic acid] | 8.34
5 | CC(C)[C@@H](CO)n1cc(C(=O)O)c(=O)c2cc(Cc3cccc(Cl)c3F)c(N3CC[C@H](N)C3)cc21 [Example 4-38, 7-((3S)-3-aminopyrrolidin-1-yl)-6-(3-chloro-2-fluorobenzyl)-1-((1S)-1-(hydroxymethyl)-2-methylpropyl)-4-oxo-1,4-dihydroquinoline-3-carboxylic acid] | 7.92
6 | CC(C)[C@@H](CO)n1cc(C(=O)O)c(=O)c2cc(Cc3cccc(Cl)c3F)c(OCc3cccnc3)cc21 [Example 4-61, 6-(3-chloro-2-fluorobenzyl)-1-((1S)-1-(hydroxymethyl)-2-methylpropyl)-4-oxo-7-(pyridin-3-ylmethoxy)-1,4-dihydroquinoline-3-carboxylic acid] | 8.31
7 | CC(=O)N[C@H]1CCN(c2cc3c(cc2Cc2cccc(Cl)c2F)c(=O)c(C(=O)O)cn3[C@H](CO)C(C)C)C1 [Example 4-26, 7-((3S)-3-(acetylamino)pyrrolidin-1-yl)-6-(3-chloro-2-fluorobenzyl)-1-((1S)-1-(hydroxymethyl)-2-methylpropyl)-4-oxo-1,4-dihydroquinoline-3-carboxylic acid] | 8.04
8 | COC[C@@H](CO)n1cc(C(=O)O)c(=O)c2cc(Cc3cccc(Cl)c3F)ccc21 [Example 2-14, 6-(3-chloro-2-fluorobenzyl)-1-((1R)-1-(hydroxymethyl)-2-methoxyethyl)-4-oxo-1,4-dihydroquinoline-3-carboxylic acid] | 7.89
9 | COc1cc2c(cc1Cc1c(F)cccc1Cl)c(=O)c(C(=O)O)cn2[C@H](CO)C(C)C [Example 7-1, 6-(2-chloro-6-fluorobenzyl)-1-((1S)-1-(hydroxymethyl)-2-methylpropyl)-7-methoxy-4-oxo-1,4-dihydroquinoline-3-carboxylic acid] | 7.77
10 | COc1cc2c(cc1Cc1cc(F)c(F)c(Cl)c1F)c(=O)c(C(=O)O)cn2[C@H](CO)C(C)C [Example 1-7, 6-(3-chloro-2,4,5-trifluorobenzyl)-1-((1S)-1-(hydroxymethyl)-2-methylpropyl)-7-methoxy-4-oxo-1,4-dihydroquinoline-3-carboxylic acid] | 8.26
11 | COc1cc2c(cc1Cc1ccc(F)c(Cl)c1)c(=O)c(C(=O)O)cn2[C@H](CO)C(C)C [Example 1-1, 6-(3-chloro-4-fluorobenzyl)-1-((1S)-1-(hydroxymethyl)-2-methylpropyl)-7-methoxy-4-oxo-1,4-dihydroquinoline-3-carboxylic acid] | 7.72
12 | COc1cc2c(cc1Cc1c(F)cccc1C(F)(F)F)c(=O)c(C(=O)O)cn2[C@H](CO)C(C)C [Example 1-12, 6-(2-fluoro-6-(trifluoromethyl)benzyl)-1-((1S)-1-(hydroxymethyl)-2-methylpropyl)-7-methoxy-4-oxo-1,4-dihydroquinoline-3-carboxylic acid] | 6.59
13 | CC(C)[C@@H](CO)n1cc(C(=O)O)c(=O)c2cc(Cc3cccc(Cl)c3F)c(N3CC[C@@H](N)C3)cc21 [Example 4-39, 7-((3R)-3-aminopyrrolidin-1-yl)-6-(3-chloro-2-fluorobenzyl)-1-((1S)-1-(hydroxymethyl)-2-methylpropyl)-4-oxo-1,4-dihydroquinoline-3-carboxylic acid] | 8.03
14 | CSCC[C@@H](CO)n1cc(C(=O)O)c(=O)c2cc(Cc3cccc(Cl)c3F)ccc21 [Example 2-16, 6-(3-chloro-2-fluorobenzyl)-1-((1S)-1-(hydroxymethyl)-3-(methylthio)propyl)-4-oxo-1,4-dihydroquinoline-3-carboxylic acid] | 8.24
15 | CC(C)[C@@H](CO)n1cc(C(=O)O)c(=O)c2cc(Cc3cccc(Cl)c3F)cc(OCc3ccccc3)c21 [Example 3-9, 8-benzyloxy-6-(3-chloro-2-fluorobenzyl)-1-((1S)-1-(hydroxymethyl)-2-methylpropyl)-4-oxo-1,4-dihydroquinoline-3-carboxylic acid] | 8.30
16 | CC(C)[C@@H](CO)n1cc(C(=O)O)c(=O)c2cc(Cc3cccc(Cl)c3F)c(NC3CCNCC3)cc21 [Example 4-42, 6-(3-chloro-2-fluorobenzyl)-1-((1S)-1-(hydroxymethyl)-2-methylpropyl)-4-oxo-7-(piperidin-4-ylamino)-1,4-dihydroquinoline-3-carboxylic acid] | 8.10
17 | CC(C)[C@@H](CO)n1cc(C(=O)O)c(=O)c2cc(Cc3cccc(Cl)c3F)c(N3CCN[C@H](C)C3)cc21 [Example 4-29, 6-(3-chloro-2-fluorobenzyl)-1-((1S)-1-(hydroxymethyl)-2-methylpropyl)-7-((3R)-3-methylpiperazin-1-yl)-4-oxo-1,4-dihydroquinoline-3-carboxylic acid] | 8.29
18 | CC(C)[C@@H](CO)n1cc(C(=O)O)c(=O)c2cc(Cc3cccc(Cl)c3F)c(N3CCOCC3)cc21 [Example 4-9, 6-(3-chloro-2-fluorobenzyl)-1-((1S)-1-(hydroxymethyl)-2-methylpropyl)-7-(morpholin-4-yl)-4-oxo-1,4-dihydroquinoline-3-carboxylic acid] | 8.22
19 | COc1cc2c(cc1Cc1cccc(Cl)c1F)c(=O)c(C(=O)O)cn2[C@H](CO)CSC [Example 2-3, 6-(3-chloro-2-fluorobenzyl)-1-((1R)-1-(hydroxymethyl)-2-(methylthio)ethyl)-7-methoxy-4-oxo-1,4-dihydroquinoline-3-carboxylic acid] | 8.17
20 | CC(C)[C@@H](CO)n1cc(C(=O)O)c(=O)c2cc(Cc3cccc(Cl)c3F)c(OCCN)cc21 [Example 4-18, 7-(2-aminoethoxy)-6-(3-chloro-2-fluorobenzyl)-1-((1S)-1-(hydroxymethyl)-2-methylpropyl)-4-oxo-1,4-dihydroquinoline-3-carboxylic acid hydrochloride] | 8.32
21 | O=C(O)c1cn2c3c(cc(Cc4cccc(Cl)c4F)cc3c1=O)OCC2CO (stereo not drawn) [Example 5-2, 8-(3-chloro-2-fluorobenzyl)-3-hydroxymethyl-6-oxo-2,3-dihydro-6H-1-oxa-3a-aza-phenalene-5-carboxylic acid] | 7.33
